c1ccc2[nH]c(-c3cscn3)nc2c1
solubility (mole fraction)
Conditions	283.15 K	288.15 K	293.15 K	298.15 K	303.15 K	308.15 K	313.15 K	318.15 K	323.15 K
in acetonitrile	0.000106	0.000125	0.00015	0.000177	0.000213	0.000259	0.0003	0.000353	0.000419
in isopropanol	0.000682	0.000785	0.000915	0.00103	0.00121	0.00137	0.00155	0.00174	0.00193
in methanol	0.0013	0.00147	0.00163	0.00181	0.002	0.00223	0.00248	0.00273	0.00297
in n-propanol	0.00136	0.00156	0.00177	0.002	0.00225	0.00252	0.00282	0.00314	0.00347
in water	2.04e-07	2.67e-07	3.42e-07	4.23e-07	5.25e-07	6.68e-07	8.6e-07	1.08e-06	1.36e-06

Reference: BigSolDB 2.1
